The supplement of paper PMC7023306
± gives the uncertainty stated by the source.

Assay: TIMS collision cross section in N2 (TIMS CCS N2); higher = larger gas-phase ion size
Conditions: drift gas: N2 (99.4% N2, 0.6% O2), calibration: Stow et al. 2017 values for Agilent ESI-L Low Concentration Tune Mix, ionization: negative ESI

SMILES | TIMS collision cross section in N2 (ion species: [M-H]-) [Å²] | other results
C[C@H]1[C@H](C)CC[C@]2(C(=O)O)CC[C@]3(C)C(=CC[C@@H]4[C@@]5(C)C[C@@H](O)[C@@H](O)[C@](C)(CO)[C@@H]5CC[C@]43C)[C@H]12 [Pygenic acid B] | 225.46 ± 0.32 | 
C[C@@H]1O[C@@H](Oc2c(-c3ccc(O)c(O)c3)oc3cc(O)cc(O)c3c2=O)[C@H](O)[C@H](O)[C@H]1O [Quercitrin] | 195.84 ± 0.038 | TIMS collision cross section in N2 (ion species: [M-H+Na+HCO2H]-): 205.52 ± 0.42 Å²
Oc1ccc(/C=C/c2cc(O)cc(O)c2)cc1 [Resveratrol] | 157.41 ± 0.0058 | 
C[C@@H]1O[C@@H](O[C@H]2[C@H](Oc3cc(O)c4c(=O)cc(-c5ccc(O)cc5)oc4c3)O[C@H](CO)[C@@H](O)[C@@H]2O)[C@H](O)[C@H](O)[C@H]1O [Rhoifolin] | 225.59 ± 0.085 | TIMS collision cross section in N2 (ion species: [M-H+Na+HCO2H]-): 229.74 ± 2.3 Å²
C[C@@H]1O[C@@H](OC[C@H]2O[C@@H](Oc3c(-c4ccc(O)c(O)c4)oc4cc(O)cc(O)c4c3=O)[C@H](O)[C@@H](O)[C@@H]2O)[C@H](O)[C@H](O)[C@H]1O [Rutin] | 231.06 ± 0.2 | TIMS collision cross section in N2 (ion species: [M-3H]-): 219.55 ± 0.41 Å²
O=C(N[C@@H](CSCc1ccccc1)C(=O)O)OCc1ccccc1 [S-Benzyl-N-carbobenzyloxy-L-cysteine] | 264.84 ± 0.64 | 
O=C(O)[C@H]1O[C@@H](Oc2cc3oc(-c4ccc(O)cc4)cc(=O)c3c(O)c2O)[C@H](O)[C@@H](O)[C@@H]1O [Scutellarein-7-glucuronide] |  | TIMS collision cross section in N2 (ion species: [M-3H]-): 202.76 ± 0.54 Å²
O=c1cc(-c2ccc(O)cc2)oc2cc(O)c(O)c(O)c12 [Scutellarein] | 159.52 ± 0.35 | TIMS collision cross section in N2 (ion species: [M-3H]-): 156.37 ± 0.57 Å²
COc1cc(C=CC(=O)O)cc(OC)c1O [Sinapic acid] | 148.27 ± 0.07 | 
COc1cc2oc(-c3ccc(O)cc3)cc(=O)c2c(O)c1O [Sorbifolin] | 166.28 ± 0.23 | 
CCCCCCCCCCCCCCCCCC(=O)O [Stearic acid] | 178.54 ± 0.015 | 
O=C(/C=C/c1ccc(O)cc1)OC[C@H]1O[C@@H](Oc2c(-c3ccc(O)cc3)oc3cc(O)cc(O)c3c2=O)[C@H](O)[C@@H](O)[C@@H]1O [Tiliroside] | 217.09 ± 0.061 | 
C[C@H]1[C@H](C)CC[C@]2(C(=O)O)CC[C@]3(C)C(=CC[C@@H]4[C@@]5(C)CC[C@H](O)C(C)(C)[C@@H]5CC[C@]43C)[C@H]12 [Ursolic acid] | 218.03 ± 0.74 | TIMS collision cross section in N2 (ion species: [M-H+Na+HCO2H]-): 229.46 ± 0.98 Å²
O=c1cc(-c2ccc(O)cc2)oc2cc(O[C@@H]3O[C@H](CO)[C@@H](O)[C@H](O)[C@H]3O[C@@H]3OC[C@](O)(CO)[C@H]3O)cc(O)c12 [apiin] | 223.96 ± 0.26 | 
CC1(C)CC[C@]2(C(=O)O)CC[C@]3(C)C(=CC[C@@H]4[C@@]5(C)C[C@H](O)[C@H](O)[C@@](C)(CO)[C@@H]5CC[C@]43C)[C@@H]2C1 [bayogenin] | 225.09 ± 0.24 | TIMS collision cross section in N2 (ion species: [M-H+HCO2H]-): 234.73 ± 0.27 Å²
C[C@@H]1O[C@@H](O[C@H]2[C@H](Oc3cc(O)c4c(c3)O[C@H](c3ccc(O)c(O)c3)CC4=O)O[C@H](CO)[C@@H](O)[C@@H]2O)[C@H](O)[C@H](O)[C@H]1O [eriodictyol-7-neohesperidoside] | 222.66 ± 0.095 | TIMS collision cross section in N2 (ion species: [M-3H]-): 222.52 ± 0.16 Å²; TIMS collision cross section in N2 (ion species: [M-H+Na+HCO2H]-): 234.56 ± 0.42 Å²
O=c1c(O)c(-c2ccccc2)oc2cc(O)cc(O)c12 [galangin] | 156.93 ± 0.11 | TIMS collision cross section in N2 (ion species: [2M-H]-): 238 ± 0.12 Å²
CC(C)=CCc1c(O)ccc2c1O[C@H](c1ccc(O)cc1)CC2=O [isobavachin] | 185.17 ± 0.47 | TIMS collision cross section in N2 (ion species: [2M-H]-): 237.66 ± 0.46 Å²
O=C(O)[C@H]1O[C@@H](Oc2cc3oc(-c4ccc(O)cc4)cc(=O)c3c(O)c2O)[C@H](O)[C@@H](O)[C@@H]1O [scutellarin (Scutellarein-7-glucuronide)] |  | TIMS collision cross section in N2 (ion species: [M-3H]-): 206.59 ± 0.074 Å²
CC1(C)C[C@H]2C3=CC[C@@H]4[C@@]5(C)CC[C@H](O)[C@](C)(CO)[C@@H]5CC[C@@]4(C)[C@]3(C)CC[C@@]2(C)[C@H](O)[C@@H]1O [soyasapogenol A] |  | TIMS collision cross section in N2 (ion species: [M-H+HCO2H]-): 224.66 ± 0.27 Å²

Continued, in another order:

TIMS collision cross section in N2 (ion species: [M-H]-) [Å²] | SMILES | other results
200.44 ± 0.33 | O=c1c(O[C@@H]2O[C@H](CO)[C@@H](O)[C@H](O)[C@H]2O)c(-c2ccc(O)cc2)oc2cc(O)cc(O)c12 [kaempferol-3-O-glucoside] | TIMS collision cross section in N2 (ion species: [2M-H]-): 279.93 ± 1.2 Å²; TIMS collision cross section in N2 (ion species: [M-H+Na+HCO2H]-): 222.09 ± 0.65 Å²
209.17 ± 0.14 | O=c1c(O)c(-c2ccc(O)cc2)oc2cc(OC3OC(CO)C(O)C(O)C3O)cc(O)c12 (configuration not stated) [kaempferol-7-O-glucoside] | TIMS collision cross section in N2 (ion species: [2M-H]-): 283.76 ± 0.75 Å²; TIMS collision cross section in N2 (ion species: [M-H+Na+HCO2H]-): 230.04 ± 0.3 Å²
226.23 ± 0.27 | CC1(C)CC[C@]2(C(=O)O)CC[C@]3(C)C(=CC[C@@H]4[C@@]5(C)C[C@H](O)[C@H](O)[C@@](C)(C(=O)O)[C@@H]5CC[C@]43C)[C@@H]2C1 [medicagenic acid] | TIMS collision cross section in N2 (ion species: [M-H+Na+HCO2H]-): 243.47 ± 0.081 Å²
189.39 ± 0.39 | CCCCCCCCCCO[C@@H]1O[C@H](CO)[C@@H](O)[C@H](O)[C@H]1O [n-Decyl-beta-D-glucopyranoside] | TIMS collision cross section in N2 (ion species: [2M-H]-): 277.92 ± 0.32 Å²; TIMS collision cross section in N2 (ion species: [M-H+HCO2H]-): 198.21 ± 0.31 Å²
181.3 ± 0.15 | CCCCCCCCO[C@@H]1O[C@H](CO)[C@@H](O)[C@H](O)[C@H]1O [n-Octyl-beta-D-glucopyranoside] | TIMS collision cross section in N2 (ion species: [2M-H]-): 272.83 ± 0.74 Å²; TIMS collision cross section in N2 (ion species: [M-H+HCO2H]-): 190.02 ± 0.2 Å²
159.43 ± 0.061 | CCCCCCCCCCCCC(=O)O [n-Tridecanoic acid] | 
232.21 ± 0.35 | COc1ccc(CCC(=O)c2c(O)cc(O[C@@H]3O[C@H](CO)[C@@H](O)[C@H](O)[C@H]3O[C@@H]3O[C@@H](C)[C@H](O)[C@@H](O)[C@H]3O)cc2O)cc1O [neohesperidin dihydrochalcone] | 
182.82 ± 0.12 | COc1ccc(-c2cc(=O)c3c(O)c(OC)c(O)c(OC)c3o2)cc1 [nevadensin] | TIMS collision cross section in N2 (ion species: [M-H+Na+HCO2H]-): 199.45 ± 0.091 Å²
168.54 ± 0.27 | COc1cc(O)c2c(c1)O[C@H](c1ccc(O)cc1)CC2=O [sakuranetin] | 
193.54 ± 0.18 | COc1cc(-c2cc(=O)c3c(O)c(OC)c(O)c(OC)c3o2)cc(O)c1OC [scaposin] | TIMS collision cross section in N2 (ion species: [M-H+Na+HCO2H]-): 209.41 ± 0.26 Å²
201.63 ± 0.24 | COc1cc([C@@H]2Oc3c(O)cc([C@H]4Oc5cc(O)cc(O)c5C(=O)[C@@H]4O)cc3[C@H]2CO)ccc1O [silychristin] | 
